# Assay: Hot stage polarized light microscopy (HSPLM)
# Assay type: physicochemical
# Conditions: heat only, 130° C. or 160° C., FIG. 3
# Method: Hot stage polarized light microscopy (HSPLM) and polarized light microscopy (PLM) were used to determine amorphous nature and visual interactions between excipients when melting. Samples were prepared by lightly spreading physical mixtures of the two compositions onto a glass slide. An Olympus BX60 microscope (Olympus Corp., Center Valley, Pa.) with Insight QE camera (Diagnostic Instruments, Inc., Sterling Heights, Mich.) was used for visual observation. […] Images were captured using Spot Advance Software (Diagnostic Instruments, Inc.).
structure (smiles),measurement,value
CS(=O)(=O)c1cc(C2(NC(=O)c3cncc4c3cnn4-c3ccc(F)cc3)CC2)ccn1 [BI-667],dissolving of BI-667 in HPMCAS-HMP when no mixing was applied,not dissolve
